No end group written: not given here. *: point of attachment. Biotin = O=C1N[C@H]2[C@H](CS[C@H]2CCCCC(=O)*)N1; C4 linker = not defined here
Key:
CFU-MIX [1] = assay: CFU-MIX cycling assay in vitro (Ara C kill); type: cell-based, mouse
Procedure: A similar assay can be performed in vitro, using the cycling status of CFU-MIX instead of CFU-S. The assay is performed as described above for the CFU-S assay except that cytosine arabinoside (Ara C, 30 micrograms/ml) is used as the cycle-specific toxic agent instead of high dose tritiated thymidine (see B. I. Lord in Haemopoiesis—A Practical Approach, N. G. Testa and G. Molineux (Eds.), IRL Press 1993; Pragnell et al. in Culture of Hematopoietic Cells, R. I. Freshney, I. B. Pragnell and M. G. Freshney (Eds.), Wiley Liss 1994) and a mouse strain with high endogenous cycling rates (Balb/c) is used instead of testosterone-treated BDFI mice.
(§1) 24 hours later (Day 1), varying doses of peptide 43-55 or vehicle were injected i.v. Bone marrow was harvested on Day 2 and the […] cycling assay conducted as in Example 14. Specifically, mice were sacrificed and single cell bone marrow suspensions prepared from the femurs. The cells were washed once and the concentration adjusted to 5×10^6 cells/ml in Fischer medium. For each test condition, one milliliter of cells was added to each of two polypropylene tubes. The tubes were incubated at 37° C. for 3 hours without (“Control”) or with (“Experimental”) the appropriate concentration of test substance. At the end of the incubation, 30 μg/ml of cytosine arabinoside (“Ara C” (Sigma)) was added to half of the tubes and the same volume of Fischer's medium was added to the others. The tubes were incubated for a further 1 hour at 37° C., after which they were placed on ice and washed twice with cold Fischer medium.
(§2) The cells were readjusted to 5×10^4-10^6/ml in Fischer's medium and 0.5 ml of cell suspension added to 5 ml of Methocult M3430 methylcellulose medium (Stem Cell Technologies, Vancouver, British Columbia). The mixture was vigorously mixed with a vortex and 1 ml was dispensed into each of five 35 mm dishes. The 35 mm dishes were in turn placed in a covered 150 mm dish with one open 35 mm dish containing sterile water. CFU-MIX colonies were counted with the use of an inverted microscope after 7 days of incubation at 37° C.
Differences in colony number between the tubes treated with medium versus the tubes treated with Ara C represent the percentage of cells in cycle under that condition according to the formula:
a=Number of CFU-MIX from tube incubated with medium alone
b=Number of CFU-MIX from tube incubated with Ara C

CFU-MIX [2] = assay: Stimulation of cycling of quiescent murine stem cells, CFU-MIX cycling assay in vitro; type: cell-based, mouse
Procedure: Microgram per milliliter doses of hemoglobin chains, myoglobin and peptides were assayed for stimulation of quiescent stem cells. Bone marrow was obtained from untreated B6D2F1 tested in the CFU-MIX cycling assay as in Example 24. Stem cells isolated from untreated B6D2F1 mice are normally slowly cycling unless stimulated (e.g. by testosterone propionate (cf. Example 1) or chemotherapy such as 5FU (cf. Example 4)) to enter into cycle.

CFU-GEMM [3] = assay: CFU-GEMM cycling assay, mobilized human peripheral blood; type: cell-based
Procedure: Peripheral blood was obtained from breast cancer patients undergoing peripheral stem cell mobilization with cyclophosphamide and G-CSF according to standard protocols. Red blood cells were removed with FicolU Hypaque (cells were diluted 1:1 with IMDM and 20 ml layered on top of 16 ml Ficoll and centrifuged at 800 g for 30 minutes; mononuclear cells were removed from the interphase and washed twice in IMDM). In one case mononuclear cells were stored frozen in liquid nitrogen before assay. The mononuclear cells were plated for the CFU-GEMM cycling assay as in Example 26 except that 2.5-5×10^5 cells were plated per dish.

CFU-GEMM [4] = assay: CFU-GEMM cycling assay, human umbilical cord blood cells; type: cell-based; settings: Table 32, cord blood mononuclear cells
Procedure: In order to investigate the ability of purified INPROL from porcine bone marrow to affect cycling on human progenitors, umbilical cord blood cells were obtained. Either the total mononuclear cell fraction obtained after separation on Ficoll or the CD34^+ fraction obtained after fractionation on anti-CD34 affinity columns (CellPro Inc.) was used. Cells were incubated for 48 hours in vitro in the presence of interleukin 3 (IL-3) and stem cell factor (SCF) (100 ng/ml each) in order to ensure that the early stem cells were in cycle. After this preincubation, cycling assays were conducted as described in Example 14 for the mouse except that CFU-GEMM (instead of CFU-MIX) were counted on Day 18 after plating.
The human cord blood CFU-GEMM cycling assay was conducted as in Example 19. Specifically, mononuclear cells were isolated from human umbilical cord blood cells and adjusted to 24×10^4 cells/ml in IMDM tissue culture medium supplemented with 10% FBS, 100 ng/ml kit ligand and 100 ng/ml human IL-3. The cells were incubated for 48 hours at 37° C.
After incubation, cells were washed and resuspended in serun-free NDM at a concentration of 10^6 cells/ml. One ml of cells was added to each of two polypropylene tubes per condition and the cycling assay conducted as in Example 24 for mouse bone marrow. After the Ara C incubation cells were washed with cold NDM and adjusted to 10,000 to 20,000 cells per 0.5 ml IMDM and mixed with 5 ml Methocult H4433 (Stem Cell Technologies). Alternatively, Methocult H4435 methylcellulose medium (Stem Cell Technologies) was used in which case the cell concentration was adjusted to 2500-5000 cells per 0.5 ml IMDM. The cells were plated as in Example 24 and CFU-GEMM colonies scored on days 14-18.

CFU-MIX [5] = assay: CFU-MIX cycling assay after in vivo injection into testosterone or 5FU treated mice; set-up: species or system mouse
Procedure: In order to test the ability of purified porcine hemoglobin chains to act in vivo, BDF1 mice were injected with testosterone propionate as described in Example 1. Twenty four hours later, mice received 500 ng of either pINPROL, porcine hemoglobin alpha chain (purified from peripheral red blood cells as in FIG. 21), porcine beta chain (purified from peripheral red blood cells as in FIG. 21) or the equivalent volume of carrier intravenously. Forty eight hours later the bone marrow from each mouse was harvested and the CFU-MIX assay conducted as described in Example 14.
To assess the stem cell inhibitory activity of peptide 43-55 in vivo, B6D2 F1 mice were pre-treated with testosterone propionate as described in Example 1 or with 5FU. Specifically, testosterone propionate (100 mg/kg body weight) was injected i.p. on Day 0 into mice. Alternatively, mice were injected on Day 0 with 5FU ([…] body weight).
as §1, §2
Differences in colony number between the tubes treated with medium versus the tubes treated with Ara C represent the percentage of cells in cycle under that condition according to the formula: […]

[6] = Table 39, untreated B6D2F1 bone marrow, 10^−3M
[7] = Table 39, untreated B6D2F1 bone marrow, 10^−5M
[8] = Table 26, Balb/c bone marrow, 10^−5M
[9] = Table 26, Balb/c bone marrow, 10^−7M
[10] = Table 26, Balb/c bone marrow, 10^−9M
[11] = Table 13, bone marrow from Balb/c mice, 100 ng/ml
[12] = Table 38, untreated B6D2F1 bone marrow, concentration printed only as (μg/ml)
[13] = Table 9, bone marrow from Balb/c mice, 100 ng/ml
[14] = Table 10, testosterone-treated BDF1 mice, 500 ng intravenously (footnote: 100 ng/ml), marrow 48 hours later

With “1-94 fragment: purified formic-acid cleaved fragment, amino acids 1-94 of human alpha hemoglobin chain” the “% Kill” value (CFU-MIX [1]; Table 20, Balb/c bone marrow, 100 ng/ml) was 0%.

In the case of `CC(C)C[C@@H](NC(=O)[C@H](Cc1ccccc1)NC(=O)CNC(=O)[C@@H](C)NC(=O)[C@@H](N)Cc1ccc(O)cc1)C(=O)O` [DADLE, reference compound], the “% Kill” value (CFU-MIX [2]; [6]) is reported as 0% and the “% Kill” value (CFU-MIX [2]; [7]) is reported as 0%.

For `C[C@@H](NC(=O)[C@@H](N)Cc1ccc(O)cc1)C(=O)NCC(=O)N(C)[C@@H](Cc1ccccc1)C(=O)NCCO` [DAMGO, (D-Ala^2,N-Me-Phe^4,Gly-ol^5)-Enkephalin, reference compound], the “% Kill” value (CFU-GEMM [3]; Table 35, Patient #2, 10^−7M) was 15%, the “% Kill” value (CFU-GEMM [3]; Table 35, Patient #2, 10^−9M) was 0% and the “% Kill” value (CFU-MIX [1]; [8]) was 15%. The “% Kill” value (CFU-MIX [1]; [9]) was 0% and the “% Kill” value (CFU-MIX [1]; [10]) was 38%.

With `CN1CC[C@]23c4c5ccc(O)c4O[C@H]2[C@@H](O)C=C[C@H]3[C@H]1C5` [Morphine, morphine, reference compound] the “% Kill” value (CFU-GEMM [3]; Table 35, Patient #2, 10^−7M) was 24%, the “% Kill” value (CFU-GEMM [3]; Table 35, Patient #2, 10^−9M) was 0% and the “% Kill” value (CFU-MIX [1]; Table 25, Balb/c bone marrow, 10^−7M) was 10%. For the same molecule, the “% Kill” value (CFU-MIX [1]; Table 25, Balb/c bone marrow, 10^−9M) was 15% and the “% Kill” value (CFU-MIX [1]; Table 25, Balb/c bone marrow, 10^−11M) was 32%.

For `C=CCN1CC[C@]23c4c5ccc(O)c4O[C@H]2C(=O)CC[C@@]3(O)[C@H]1C5` [Naloxone, naloxone, reference compound], the “effect of naloxone itself on the assay” value (CFU-MIX [1]; 10^−5-10^−7M) was “no effect”, the “% Kill” value (CFU-MIX [1]; Table 28, naloxone alone, 10^−5M final concentration) was 36% and the “% Kill” value (CFU-MIX [1]; Table 30, 10^−10M) was 0%.

For “(D-Arg^2, Lys^4)-Dermorphin-(1-4)-amide [DALDA, reference compound]”, the “% Kill” value (CFU-MIX [1]; [8]) was 47%, the “% Kill” value (CFU-MIX [1]; [9]) was 0% and the “% Kill” value (CFU-MIX [1]; [10]) was 34%. For the same molecule, the “% Kill” value (CFU-MIX [2]; [6]) was 41% and the “% Kill” value (CFU-MIX [2]; [7]) was 24%.

For “Biotinylated alpha chain: human hemoglobin alpha chain from hemoglobin treated with NHS LC Biotin”, the “% Kill” value (CFU-MIX [1]; [11]) was 7%.

In the case of “Biotinylated beta chain: human hemoglobin beta chain from hemoglobin treated with NHS LC Biotin”, the “% Kill” value (CFU-MIX [1]; [11]) is reported as 25%.

For “Biotinylated peptide 43-55: Peptide 43-55 with biotin linked via a C4 carbon linker to the N-terminal NH2 of Phe43 ({Biotin-C4 linker}-FPHFDLSHGSAQV; reading uncertain; UniProt P69905 44-56, looked up, fragment)”, the “% Kill” value (CFU-MIX [1]; Table 24, 1 ng/ml) was 15%.

For “DALTNAVAHVDDMPNALSA [Peptide 64-82, amino acids 64-82 of human alpha hemoglobin]”, the “% Kill” value (CFU-MIX [1]; Table 18, 100 ng/ml) was 9%, the “% Kill” value (CFU-GEMM [4]; 1 ng/ml) was 21% and the “% Kill” value (CFU-GEMM [4]; 10 ng) was 20%. For the same molecule, the “% Kill” value (CFU-GEMM [4]; 100 ng/ml) was 39% and the “% Kill” value (CFU-MIX [2]; Table 42, untreated B6D2F1 bone marrow, 1 μg/ml) was 25%.

“H-D-Phe-Cys-Tyr-D-Trp-Orn-Thr-Pen-Thr-NH2 [CTOP, reference compound]” was tested, and the “effect of CTOP itself on the assay” value (CFU-MIX [1]; 10^−7 M) was “no effect” and the “% Kill” value (CFU-MIX [1]; Table 31, CTOP alone, 10^−7M final concentration) was 36%.

“Human beta chain: purified human hemoglobin beta chain” was tested, and the “% Kill” value (CFU-MIX [1]; Table 11, bone marrow from Balb/c mice, 100 ng/ml) was 41%, the “% Kill” value (CFU-MIX [1]; [11]) was 55% and the “% Kill” value (CFU-MIX [2]; [12]) was 55%.

For “Human delta chain: purified human hemoglobin delta chain”, the “% Kill” value (CFU-MIX [1]; Table 12, bone marrow from Balb/c mice, 100 ng/ml) was −4% and the “% Kill” value (CFU-MIX [1]; Table 29, 100 ng/ml, alone) was 10%.

For Human hemoglobin: human hemoglobin, the “% Kill” value (CFU-MIX [5]; Table 14, testosterone-treated BDF1 mice, 500 ng/mouse) was −31%.

In the case of “Leu-Val-Val-Tyr-Pro-Trp-Thr-Gln-Arg-Phe (LVVYPWTQRF; printed: Leu-Val-Val-Tyr-Pro-Trp-Thr-Gln-Arg-Phe) [Hemorphin 10, reference compound]”, the “% Kill” value (CFU-MIX [1]; Table 18, 100 ng/ml) is reported as 1% and the “% Kill” value (CFU-MIX [1]; Table 28, 100 ng/ml, alone) is reported as 0%.

In the case of “Porcine alpha chain: porcine hemoglobin alpha chain purified from peripheral red blood cells as in FIG. 21”, the “% Kill” value (CFU-MIX [1]; [13]) is reported as −4% and the “% Kill” value (CFU-MIX [5]; [14]) is reported as 5%.

For “Porcine beta chain: porcine hemoglobin beta chain purified from peripheral red blood cells as in FIG. 21”, the “% Kill” value (CFU-MIX [1]; [13]) was −14% and the “% Kill” value (CFU-MIX [5]; [14]) was −5%.

In the case of “VVYPWTQR [Hemorphin 7, reference compound]”, the “% Kill” value (CFU-MIX [1]; Table 18, 100 ng/ml) is reported as 0%.

B1: Human Myoglobin: human myoglobin (protein, UniProt P02144 2-154, looked up)
Myoglobin: GLSDGEWQLVLNVWGKVEADIPGHGQEVLIRLFKGHPETLEKFDKFKHLKSEDEMKASEDLKKHGATVLTALGGILKKKGHHEAEIKPLAQSHATKHKIPVKYLEFISECIIQVLQSKHPGDFGADAQGAMNKALELFRKDMASNYKELGFQG
For B1, the “stem cell inhibitory activity, in words” value (CFU-MIX [1]; CFU-MIX cycling assay) was “inactive” and the “% Kill” value (CFU-MIX [2]; [12]) was 30%.

Reference: patent publication US6784155B1, “Inhibitor and stimulator of stem cell proliferation and uses thereof” (Wellstat Therapeutics Corporation, priority 1996, dated 2004)
